# Results as given in ChEMBL document CHEMBL1201862, “PubChem BioAssay data set” (2004).
# Active and inactive are the calls of the source.
# Tests used:
# [1] = molecular target: T1, Caspase-6 (Homo sapiens, UniProt P55212); assay: human caspase-6 inhibitors, dose response, biochemical, VEID-R110 fluorescence, cherry-pick (AID 720632)
# T1 sequence (P55212 whole entry): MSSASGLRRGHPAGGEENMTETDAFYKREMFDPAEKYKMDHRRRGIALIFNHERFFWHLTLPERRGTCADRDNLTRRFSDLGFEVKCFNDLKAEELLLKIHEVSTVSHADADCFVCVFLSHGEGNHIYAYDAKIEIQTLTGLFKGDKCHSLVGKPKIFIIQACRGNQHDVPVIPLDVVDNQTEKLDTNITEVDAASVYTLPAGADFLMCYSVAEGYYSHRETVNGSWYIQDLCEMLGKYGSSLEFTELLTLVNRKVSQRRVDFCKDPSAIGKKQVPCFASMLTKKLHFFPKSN
# [2] = Luminescence Cell-Based Dose Response HTS to Identify Inhibitors of 5'UTR Stem-Loop Driven Prion Protein mRNA Translation in H4 Neuroglioblastoma Cells. [Related pubchem assays: 1827 (Project Summary), 1813 (Primary HTS)]; assay type: functional
# [3] = molecular target: T2, Apoptotic protease-activating factor 1 (Homo sapiens, UniProt O14727); assay: SAR analysis of small molecule inhibitors of Apaf-1 in a Fluorescent assay.; assay type: functional; details: read-out: IC50_Mean
# T2 sequence (O14727 whole entry): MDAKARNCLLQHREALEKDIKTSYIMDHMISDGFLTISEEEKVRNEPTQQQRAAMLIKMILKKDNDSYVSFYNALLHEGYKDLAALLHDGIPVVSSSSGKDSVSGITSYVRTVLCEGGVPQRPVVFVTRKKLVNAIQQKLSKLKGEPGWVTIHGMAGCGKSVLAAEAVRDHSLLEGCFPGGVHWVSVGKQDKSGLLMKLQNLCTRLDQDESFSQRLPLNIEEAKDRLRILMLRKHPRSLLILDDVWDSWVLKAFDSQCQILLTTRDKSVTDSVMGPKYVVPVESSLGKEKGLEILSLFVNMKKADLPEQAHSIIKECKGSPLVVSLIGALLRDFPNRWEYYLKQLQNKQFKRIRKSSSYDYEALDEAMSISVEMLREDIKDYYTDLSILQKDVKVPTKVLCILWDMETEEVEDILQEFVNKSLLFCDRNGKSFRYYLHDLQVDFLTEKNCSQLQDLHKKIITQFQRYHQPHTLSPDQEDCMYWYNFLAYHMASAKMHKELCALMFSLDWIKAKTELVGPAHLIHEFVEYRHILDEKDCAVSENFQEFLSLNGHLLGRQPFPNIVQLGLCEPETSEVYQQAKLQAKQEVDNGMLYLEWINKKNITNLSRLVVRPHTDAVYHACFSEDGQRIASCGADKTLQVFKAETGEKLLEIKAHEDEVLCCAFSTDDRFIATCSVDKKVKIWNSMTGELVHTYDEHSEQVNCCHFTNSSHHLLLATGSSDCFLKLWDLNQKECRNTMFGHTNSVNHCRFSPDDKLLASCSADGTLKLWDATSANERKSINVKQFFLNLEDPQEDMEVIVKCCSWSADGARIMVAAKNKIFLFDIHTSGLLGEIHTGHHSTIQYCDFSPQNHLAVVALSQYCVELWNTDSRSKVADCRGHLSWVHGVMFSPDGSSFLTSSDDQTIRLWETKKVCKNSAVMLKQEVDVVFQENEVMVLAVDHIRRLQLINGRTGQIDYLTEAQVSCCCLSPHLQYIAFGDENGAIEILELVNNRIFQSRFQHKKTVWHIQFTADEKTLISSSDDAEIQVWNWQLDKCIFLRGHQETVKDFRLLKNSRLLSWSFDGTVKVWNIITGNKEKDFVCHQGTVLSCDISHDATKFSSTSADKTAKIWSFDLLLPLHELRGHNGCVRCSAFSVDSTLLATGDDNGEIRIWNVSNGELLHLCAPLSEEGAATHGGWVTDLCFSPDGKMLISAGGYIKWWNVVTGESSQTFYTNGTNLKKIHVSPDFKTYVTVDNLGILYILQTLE
# [4] = molecular target: T3, Streptokinase A (Streptococcus pyogenes serotype M1, UniProt P10520); assay: S. pyogenes streptokinase expression inhibitors, potency, dose response, plasminogen activation absorbance, OD405 (AID 1914); assay type: functional, Streptococcus pyogenes M1 GAS;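 also: secreted streptokinase activity via plasminogen activation per viability signal from cell pellet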
# T3 sequence (P10520 whole entry): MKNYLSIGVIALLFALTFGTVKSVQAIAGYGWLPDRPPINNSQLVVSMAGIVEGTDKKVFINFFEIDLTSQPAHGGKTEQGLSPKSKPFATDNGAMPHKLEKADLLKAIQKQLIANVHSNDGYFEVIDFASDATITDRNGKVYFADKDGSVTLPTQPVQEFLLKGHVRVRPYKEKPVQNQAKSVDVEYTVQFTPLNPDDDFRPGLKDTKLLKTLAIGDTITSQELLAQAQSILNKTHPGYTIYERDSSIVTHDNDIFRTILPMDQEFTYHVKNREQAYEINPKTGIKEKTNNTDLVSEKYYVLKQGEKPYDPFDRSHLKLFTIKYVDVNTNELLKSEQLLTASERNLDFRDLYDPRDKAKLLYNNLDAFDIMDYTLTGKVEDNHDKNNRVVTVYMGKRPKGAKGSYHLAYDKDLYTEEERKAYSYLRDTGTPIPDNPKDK
# [5] = molecular target: T4, Mannose-6-phosphate isomerase (Homo sapiens, UniProt P34949); assay: human PMI inhibitors, high substrate, primary screen, biochemical, fluorescence intensity, high mannose 6-phosphate (AID 1220)
# T4 sequence (P34949 whole entry): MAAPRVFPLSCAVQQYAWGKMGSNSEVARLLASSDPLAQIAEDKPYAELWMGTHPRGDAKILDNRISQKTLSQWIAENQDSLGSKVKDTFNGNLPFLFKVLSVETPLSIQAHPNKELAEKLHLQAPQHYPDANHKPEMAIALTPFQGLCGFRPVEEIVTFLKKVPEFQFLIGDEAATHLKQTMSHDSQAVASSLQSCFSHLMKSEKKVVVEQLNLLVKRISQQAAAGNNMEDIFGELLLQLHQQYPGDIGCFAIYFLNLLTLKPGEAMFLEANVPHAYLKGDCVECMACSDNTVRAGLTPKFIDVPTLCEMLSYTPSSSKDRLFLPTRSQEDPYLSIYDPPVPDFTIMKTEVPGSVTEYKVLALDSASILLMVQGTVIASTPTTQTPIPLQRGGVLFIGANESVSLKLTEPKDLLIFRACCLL
# [6] = molecular target: Delta-type opioid receptor (Homo sapiens, UniProt P41143); assay: HTS Image-Based Screen for Antagonists of the DOR Receptor. [Related pubchem assays (depositor defined):AID1777, AID1785, AID1786, AID2133]; assay type: functional;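 also: U2OS cells expressing DOR stimulated with 100 nM SNC80 agonist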
# [7] = control 3'UTR Renilla luciferase suppression, dose response, counter-screen for Shn3 inhibitor project, cell-based, Clone20-Shn3RL, cherry-picked (AID 624133); assay type: functional
# [8] = molecular target: Sphingosine 1-phosphate receptor 1 (Homo sapiens, UniProt P21453); assay type: functional;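 also: Tango beta-arrestin reporter U2OS cells stimulated with S1P near its EC80; inhibitor potency meaning antagonism of receptor activation by the natural agonist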
# [9] = inhibitors of clade B AD8 Env fusion, dose response, cell-based, cherry-pick (AID 652062); assay type: functional;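 also: luciferase signal from cell-cell fusion driven by HIV-1 clade B AD8 Env; potency is for inhibitors of fusion seen as a drop in luminescence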
# [10] = molecular target: Peroxisome proliferator-activated receptor gamma/Nuclear receptor corepressor 2 (Homo sapiens, UniProt P37231+Q9Y618); assay type: functional
# [11] = inhibitors of HIV Env-driven cell fusion, dose response, cherry-pick (AID 652057); assay type: functional, cell-based
# Sequence of Sphingosine 1-phosphate receptor 1 (P21453 whole entry, the tested form may be a part): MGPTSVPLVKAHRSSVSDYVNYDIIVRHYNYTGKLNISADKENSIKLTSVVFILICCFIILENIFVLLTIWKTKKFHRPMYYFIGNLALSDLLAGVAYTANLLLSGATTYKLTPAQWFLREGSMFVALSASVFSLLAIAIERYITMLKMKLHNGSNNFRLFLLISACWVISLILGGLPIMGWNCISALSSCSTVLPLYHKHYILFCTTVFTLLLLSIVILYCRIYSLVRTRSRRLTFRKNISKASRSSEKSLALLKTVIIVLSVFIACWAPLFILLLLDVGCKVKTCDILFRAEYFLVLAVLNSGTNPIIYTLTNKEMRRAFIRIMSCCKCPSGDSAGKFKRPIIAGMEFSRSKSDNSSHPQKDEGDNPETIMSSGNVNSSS
# Sequence of Delta-type opioid receptor (P41143 whole entry): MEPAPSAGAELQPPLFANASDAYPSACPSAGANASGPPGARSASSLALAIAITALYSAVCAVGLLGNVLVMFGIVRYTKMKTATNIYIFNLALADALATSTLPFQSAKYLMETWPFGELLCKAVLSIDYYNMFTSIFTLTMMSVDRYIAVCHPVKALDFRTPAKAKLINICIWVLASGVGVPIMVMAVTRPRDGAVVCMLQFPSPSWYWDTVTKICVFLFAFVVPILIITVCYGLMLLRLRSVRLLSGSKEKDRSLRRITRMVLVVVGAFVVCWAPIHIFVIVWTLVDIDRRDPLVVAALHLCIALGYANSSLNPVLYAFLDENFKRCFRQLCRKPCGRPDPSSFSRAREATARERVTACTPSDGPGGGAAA
# Sequence of Peroxisome proliferator-activated receptor gamma/Nuclear receptor corepressor 2 (P37231 whole entry, the tested form may be a part): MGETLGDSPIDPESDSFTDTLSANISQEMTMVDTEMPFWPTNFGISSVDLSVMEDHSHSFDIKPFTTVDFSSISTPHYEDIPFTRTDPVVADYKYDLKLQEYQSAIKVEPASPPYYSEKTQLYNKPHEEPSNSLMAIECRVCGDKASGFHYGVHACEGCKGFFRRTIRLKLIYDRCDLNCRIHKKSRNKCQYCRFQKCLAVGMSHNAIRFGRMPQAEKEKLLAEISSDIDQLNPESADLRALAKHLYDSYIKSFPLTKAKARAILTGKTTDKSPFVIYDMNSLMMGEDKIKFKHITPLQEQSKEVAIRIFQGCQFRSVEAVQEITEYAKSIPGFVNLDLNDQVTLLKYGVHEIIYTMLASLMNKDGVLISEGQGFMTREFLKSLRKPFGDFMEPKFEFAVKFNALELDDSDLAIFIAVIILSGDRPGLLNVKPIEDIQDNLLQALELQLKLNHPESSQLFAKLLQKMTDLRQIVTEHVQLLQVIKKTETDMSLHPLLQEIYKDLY
# Sequence of Peroxisome proliferator-activated receptor gamma/Nuclear receptor corepressor 2 (Q9Y618 whole entry, the tested form may be a part): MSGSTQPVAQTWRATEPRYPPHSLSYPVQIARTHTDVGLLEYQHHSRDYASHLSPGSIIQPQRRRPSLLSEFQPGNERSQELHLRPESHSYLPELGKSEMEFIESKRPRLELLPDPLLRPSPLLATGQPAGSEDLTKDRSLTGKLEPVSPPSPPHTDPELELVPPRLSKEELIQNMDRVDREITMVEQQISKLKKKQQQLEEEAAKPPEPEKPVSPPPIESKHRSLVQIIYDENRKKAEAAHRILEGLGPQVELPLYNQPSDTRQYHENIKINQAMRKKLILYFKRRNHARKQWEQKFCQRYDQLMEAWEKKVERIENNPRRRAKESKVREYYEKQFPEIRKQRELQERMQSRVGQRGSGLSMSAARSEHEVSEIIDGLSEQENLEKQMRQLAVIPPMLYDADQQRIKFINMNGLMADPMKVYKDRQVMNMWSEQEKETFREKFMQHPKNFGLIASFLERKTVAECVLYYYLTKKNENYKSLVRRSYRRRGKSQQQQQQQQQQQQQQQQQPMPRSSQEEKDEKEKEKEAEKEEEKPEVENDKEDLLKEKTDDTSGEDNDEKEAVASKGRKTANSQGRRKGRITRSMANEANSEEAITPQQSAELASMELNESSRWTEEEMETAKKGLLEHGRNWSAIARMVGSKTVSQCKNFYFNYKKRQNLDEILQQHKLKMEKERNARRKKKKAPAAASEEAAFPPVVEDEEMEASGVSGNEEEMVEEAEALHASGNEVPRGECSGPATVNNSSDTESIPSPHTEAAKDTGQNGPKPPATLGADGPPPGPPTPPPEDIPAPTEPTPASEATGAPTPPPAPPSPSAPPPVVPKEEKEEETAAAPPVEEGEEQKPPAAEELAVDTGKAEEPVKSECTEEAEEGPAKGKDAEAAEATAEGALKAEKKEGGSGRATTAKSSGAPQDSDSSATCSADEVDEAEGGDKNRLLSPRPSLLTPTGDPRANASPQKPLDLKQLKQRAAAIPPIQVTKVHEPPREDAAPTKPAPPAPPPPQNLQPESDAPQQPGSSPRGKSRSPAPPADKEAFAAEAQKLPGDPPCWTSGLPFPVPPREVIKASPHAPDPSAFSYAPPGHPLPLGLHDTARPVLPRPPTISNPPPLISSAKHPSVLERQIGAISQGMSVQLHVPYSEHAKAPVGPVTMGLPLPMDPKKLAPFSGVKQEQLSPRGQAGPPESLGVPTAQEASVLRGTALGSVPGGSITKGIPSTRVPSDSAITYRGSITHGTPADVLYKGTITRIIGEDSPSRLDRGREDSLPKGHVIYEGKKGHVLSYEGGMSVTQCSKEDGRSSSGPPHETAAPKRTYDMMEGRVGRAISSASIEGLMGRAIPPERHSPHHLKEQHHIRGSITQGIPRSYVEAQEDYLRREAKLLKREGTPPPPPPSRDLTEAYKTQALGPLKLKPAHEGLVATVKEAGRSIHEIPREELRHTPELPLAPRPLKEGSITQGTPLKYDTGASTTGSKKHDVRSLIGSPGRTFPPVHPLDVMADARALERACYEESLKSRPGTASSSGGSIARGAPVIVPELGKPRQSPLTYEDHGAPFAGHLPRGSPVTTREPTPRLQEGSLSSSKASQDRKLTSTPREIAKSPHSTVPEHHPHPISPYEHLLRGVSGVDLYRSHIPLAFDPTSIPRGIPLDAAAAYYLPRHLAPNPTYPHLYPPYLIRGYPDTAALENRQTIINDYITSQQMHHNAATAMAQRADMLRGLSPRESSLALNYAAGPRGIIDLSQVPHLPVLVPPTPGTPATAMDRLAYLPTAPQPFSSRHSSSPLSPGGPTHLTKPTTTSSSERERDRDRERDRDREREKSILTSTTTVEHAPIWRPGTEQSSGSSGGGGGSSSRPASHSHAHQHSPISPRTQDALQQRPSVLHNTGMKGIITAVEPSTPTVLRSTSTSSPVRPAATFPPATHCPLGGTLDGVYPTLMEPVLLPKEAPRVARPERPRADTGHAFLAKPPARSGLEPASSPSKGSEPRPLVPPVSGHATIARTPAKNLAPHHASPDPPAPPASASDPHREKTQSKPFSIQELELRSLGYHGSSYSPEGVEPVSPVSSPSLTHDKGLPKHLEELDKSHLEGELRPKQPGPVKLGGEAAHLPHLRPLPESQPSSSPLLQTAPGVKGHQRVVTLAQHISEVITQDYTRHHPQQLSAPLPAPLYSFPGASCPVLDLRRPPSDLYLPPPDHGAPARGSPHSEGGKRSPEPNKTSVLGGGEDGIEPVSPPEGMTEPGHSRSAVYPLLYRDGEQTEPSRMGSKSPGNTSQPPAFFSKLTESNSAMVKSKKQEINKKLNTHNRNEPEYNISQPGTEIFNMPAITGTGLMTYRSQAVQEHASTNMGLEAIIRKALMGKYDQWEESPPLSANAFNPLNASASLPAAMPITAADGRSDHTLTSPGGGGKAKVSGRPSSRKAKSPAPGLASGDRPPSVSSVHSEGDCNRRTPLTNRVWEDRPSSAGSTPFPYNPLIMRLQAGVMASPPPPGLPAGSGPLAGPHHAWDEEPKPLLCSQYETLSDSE
smiles,measurement,setting,value
CCCCn1c(NC(=O)c2ccccc2Cl)c(C#N)c2nc3ccccc3nc21,AC50,[1],14.1 µM (active)
O=C1c2cc(F)ccc2-n2c1nc1ccccc1c2=O,EC50,[2],> 120 µM (not active)
same,IC50,[3],67.7 µM (active)
CCOC(=O)C1=C(c2ccc(OC)cc2)C(=O)c2ccccc2C1=O,EC50,[4],> 150 µM (not active)
same,IC50,[5],> 50 µM (not active)
CCC(=O)OCCNc1cc(Sc2nccn2C)c2nonc2c1[N+](=O)[O-],IC50,[6],29.7 µM (inactive)
same,AC50,[7],4.16 µM (active)
"O=C1C(=O)c2ccccc2-c2ccccc21 [9,10-PHENANTHRENEQUINONE]",IC50,[8],5.02 µM (active)
same,AC50,[9],2.66 µM (active)
same,IC50,[10],1.84 µM (active)
same,AC50,[11],4.53 µM (active)
